Assay results: patent US7576102B2, “Biaryl substituted nitrogen containing heterocycle inhibitors of LTA4H for treating inflammation” (deCODE genetics ehf, priority 2005, dated 2009)
Counter-ions that a name gives are not always drawn.

Key:
human LTA4 hydrolase = target: T1, human LTA4 hydrolase (Homo sapiens, UniProt P09960); assay: In vitro assay testing inhibitory activity against purified recombinant human LTA4 hydrolase; format: biochemical; conditions: 200 nM recombinant enzyme, 2 μM LTA4, LTB4 by LC-MS/MS; read-out: IC50(μM) (hLTA4H)
T1 construct: A human LTA4 hydrolase full-length cDNA clone (NM_000895) was purchased from OriGene Technologies; made in house; host or cells: Escherichia coli BL21-AI
T1 sequence (P09960 1-611): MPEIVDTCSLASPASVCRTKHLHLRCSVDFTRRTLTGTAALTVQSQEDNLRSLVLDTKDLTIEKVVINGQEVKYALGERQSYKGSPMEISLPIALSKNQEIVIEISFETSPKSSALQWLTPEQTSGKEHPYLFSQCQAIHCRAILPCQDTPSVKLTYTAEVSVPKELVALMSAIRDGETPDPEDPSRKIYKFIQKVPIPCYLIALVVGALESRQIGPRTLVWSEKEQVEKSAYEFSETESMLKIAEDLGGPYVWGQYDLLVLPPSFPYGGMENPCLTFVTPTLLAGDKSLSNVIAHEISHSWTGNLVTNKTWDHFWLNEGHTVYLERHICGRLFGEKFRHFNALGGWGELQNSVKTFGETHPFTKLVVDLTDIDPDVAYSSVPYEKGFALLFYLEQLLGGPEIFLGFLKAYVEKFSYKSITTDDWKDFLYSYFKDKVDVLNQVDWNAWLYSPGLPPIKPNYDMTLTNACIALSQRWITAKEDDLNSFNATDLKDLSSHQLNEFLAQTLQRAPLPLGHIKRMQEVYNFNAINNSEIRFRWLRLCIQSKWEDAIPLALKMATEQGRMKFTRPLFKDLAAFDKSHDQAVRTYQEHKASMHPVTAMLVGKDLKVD
From the text: (1) In vitro Assay Testing Inhibitory Activity Against Purified Recombinant Human LTA4 Hydroase:
A human LTA4 hydrolase full-length cDNA clone (NM_000895) was purchased from OriGene Technologies (Rockville, Md.). The gene was amplified by polmerase chain reaction and transferred via pDONR201 into the bacterial expression vector pDEST17 by recombination (both plasmids from Invitrogen, Carlsbad, Calif.). The resulting construct was transformed into Escherichia coli BL21-AI (Invitrogen), and expression was induced by chemical induction with arabinose. The recombinant enzyme was purified by chromatography on a FPLC system (Amersham Biosciences, Uppsala, Sweden) using immobilized metal affinity chromatography (Ni-NTA Superflow, Qiagen, Hilden, Germany) and anion exchange chromatography (MonoQ HR 10/10, Amersham Biosciences).
The compounds of the invention were incubated in a series of dilutions with 200 nM of recombinant enzyme in assay buffer (100 mM Tris-HCl, 100 mM NaCl, 5 mg/ml fatty-acid free BSA, 10% DMSO, pH 8.0) for 10 min at room temperature to allow binding between LTA4 hydrolase and the inhibitors. LTA4 was prepared by alkaline hydrolysis of LTA4 methyl ester (Biomol, Plymouth Meeting, Pa., or Cayman Chemicals, Ann Arbor, Mich.). A solution of 10 μg of the ester was dried under a nitrogen stream and redissolved in 60 μl of a solution of 80% aceton and 20% 0.25 M NaOH. After incubation for 40 min at room temperature the resulting approximately 500 μM tock of LTA4 was kept at −80° C. for no more than a few days prior to use.
Immediately before the assay, LTA4 was diluted to a concentration of 10 μM in assay buffer (without DMSO) and added to the reaction mixture to a final concentration of 2 μM to initiate the enzyme reaction. After incubation for 120 sec at room temperature, the reaction was stopped by adding 2 volumes of chilled quenching buffer, containing acetonitrile with 1% acetic acid and 225 nM LTB4-d4 (Biomol). The samples were then kept at 4° C. over night to complete protein precipitation and centrifuged for 15 min at 1800 g. LTB4 formed was measured by LC-MS/MS using LTB4-d4 as an internal standard and an external LTB4 standard (Biomol) as reference. Briefly, the analyte was separated from LTB4 isomers formed by spontaneous hydrolysis of LTA4 using isocratic elution (modified protocol from Mueller et al. (1996), J. Biol. Chem. 271, 24345-24348) on a HPLC system (Waters, Milford, Mass.) and analyzed on a tandem quadrupole mass spectrometer (Waters). MRM transitions followed on 2 channels were 335.2>195.3 (LTB4) and 339.2>197.3 (LTB4-d4). Based on the amounts of LTB4 found at each inhibitor concentration, a dose-response curve was fitted to the data and an IC50 value was calculated.

[1] = tested on: LTB4 in human whole blood; assay: Ex vivo assay testing inhibitory activity in human whole blood after stimulation with calcium ionophore (LTB4 by immunoassay); format: cell-based; conditions: 20 μM ionomycin, read-out: IC50(μM) (hWB)
Description: (2) Ex vivo Assay Testing Inhibitory Activity in Human Whole Blood After Stimulation with Calcium Ionophor: Human blood was collected in heparin-containing Vacutainer tubes. For each sample, 200 μl of blood were dispensed into a pre-warmed plate and 188 μl of RPMI-1640 medium (Invitrogen) containing 20 μg/ml Indomethacin (Sigma, St. Louis, Mo.) were added. Then 4 μl of a series of compound dilutions (in DMSO) were added, followed by a 15 min incubation at 37° C. with gentle shaking. After that, blood samples were stimulated by adding lonomycin (Calbiochem) to a final concentration of 20 μM. After another incubation at 37° C. for 30 min, samples were centrifuged for 5 min at 1800 g and 4° C. Supernatants were taken and LTB4 concentrations were determined using a commercially available enzyme-linked immunoassay (R&D Systems, Minneapolis, Minn.) according to the manufacturer's instructions. Results obtained for different concentrations of hydrolase inhibitor were then used to fit a dose-response curve and calculate an IC50 value.

[2] = tested on: ionophore-induced LTB4 production; conditions: oral administration; cited from earlier work
[3] = tested on: ionophore-induced LTB4 production; conditions: oral administration; cited from earlier work; remark: listed apart in the source
colitis symptoms = conditions: eight weeks of treatment; cited from earlier work

SMILES	IC50 (human LTA4 hydrolase)	other results
c1ccc(Cc2ccc(O[C@H]3CCNC3)cc2)cc1 [Example 1, (S) 3-(4-Benzyl-phenoxy)-pyrrolidine hydrochloride salt]	< 5 µM	IC50 [1]: < 5 µM
c1ccc(Cc2ccc(O[C@@H]3CCNC3)cc2)cc1 [Example 2, (R) 3-(4-Benzyl-phenoxy)-pyrrolidine hydrochloride salt]	< 5 µM	IC50 [1]: < 5 µM
c1ccc(Oc2ccc(OC3CCNCC3)cc2)cc1 [Example 3, 4-(4-Phenoxy-phenoxy)-piperidine hydrochloride salt]	< 5 µM	IC50 [1]: < 5 µM
O=C(O)CCCN1CC[C@@H](Oc2ccc(Cc3ccccc3)cc2)C1 [Example 4, 4-[(R)-3-(4-Benzyl-phenoxy)-pyrrolidin-1-yl]-butyric acid hydrochloride salt]	< 5 µM	
O=C(O)CCN1CCC(Oc2ccc(Oc3ccccc3)cc2)CC1 [Example 5, 3-[4-(4-Phenoxy-phenoxy)-piperidin-1-yl]-propionic acid]	< 5 µM	
O=C(O)CCCN1CCC(Oc2ccc(Oc3ccccc3)cc2)CC1 [Example 6, 4-[4-(4-Phenoxy-phenoxy)-piperidin-1-yl]-butyric acid hydrochloride salt]	< 5 µM	
FC(F)(F)c1ccc(Oc2ccc(OC3CCNCC3)cc2)cc1 [Example 7, 4-[4-(4-Trifluoromethyl-phenoxy)-phenoxy]-piperidine hydrochloride salt]	< 5 µM	
c1ccc(-c2ccc(Oc3ccc(OC4CCNCC4)cc3)cc2)cc1 [Example 8, 4-[4-(Biphenyl-4-yloxy)-phenoxy]-piperidine hydrochloride salt]	< 5 µM	IC50 [1]: < 5 µM
FC(F)(F)Oc1ccc(Oc2ccc(OC3CCNCC3)cc2)cc1 [Example 9, 4-[4-(4-Trifluoromethoxy-phenoxy)-phenoxy]-piperidine hydrochloride]	5 to 20 µM	
Clc1ccc(Oc2ccc(OC3CCNCC3)cc2)cc1 [Example 10, 4-[4-(4-Chloro-phenoxy)-phenoxy]-piperidine hydrochloride]	< 5 µM	
c1ccc(Oc2ccc(O[C@@H]3CCNC3)cc2)cc1 [Example 11, (R)-3-(4-Phenoxy-phenoxy)-pyrrolidine hydrochloride]	< 5 µM	
O=C(O)CCCN1CC[C@@H](Oc2ccc(Oc3ccccc3)cc2)C1 [Example 12, 4-[(R)-3-(4-Phenoxy-phenoxy)-pyrrolidin-1-yl]-butyric acid hydrogen chloride]	< 5 µM	
NC(=O)CCCN1CC[C@@H](Oc2ccc(Oc3ccccc3)cc2)C1 [Example 13, 4-[(R)-3-(4-Phenoxy-phenoxy)-pyrrolidin-1-yl]-butyramide]	< 5 µM	
O=C(O)CCCN1CC[C@@H](Oc2ccc(Oc3ccc(Cl)cc3)cc2)C1 [Example 14, 4-{(R)-3-[4-(4-Chloro-phenoxy)-phenoxy]-pyrrolidin-1-yl}-butyric acid HCl]	< 5 µM	
CN(CCCOc1ccc(Cc2ccccc2)cc1)CCC(=O)O.Cl [SC57461]		inhibition of ionophore-induced LTB4 production in mouse blood ex vivo [2]: inhibition of ionophore-induced LTB4 production; inhibition of ionophore-induced LTB4 production in rat peritoneum in vivo [3]: inhibition of ionophore-induced LTB4 production; colitis symptoms in a primate model (colitis symptoms): significantly improved colitis symptoms
